The results in this text go back to patent publication US11066401B2, “Pyrimidine compound, chloride salt thereof, and manufacturing and application of same” (SHENZHEN HAIBIN PHARMACEUTICAL CO., LTD, priority 2016, dated 2021).

Where a name gives a salt, the structure may show the parent alone. Read-outs that look alike come from different tables or passages of the source.

As usually defined, the IC50 is the midpoint of a concentration-inhibition curve. One may read the melting point as the temperature of the solid-liquid transition.

Series [1] deals with PIM1 (Homo sapiens, UniProt P11309). As to the kind of experiment: Assay of PIM kinase activity, PIM1. It is filed as biochemical. The settings on record: 6 concentrations, initial concentration 30 nM; read-out: IC50 PIM 1. How it is done:
(§1) Dose-dependent experiments on PIM1, PIM2 and PIM3 were commissioned to Shanghai Runnuo Biotechnology, 6 concentration gradients were set, the initial concentration was 30 nM, 200 nM and 30 nM, then diluted successively, the inhibitive effects of compounds on PIM kinase was tested, the results were shown in Table 9.

The target in series [2] is PIM2 (Homo sapiens, UniProt Q9P1W9). As to the kind of experiment: Assay of PIM kinase activity, PIM2. It is filed as biochemical. The conditions noted are these: 6 concentrations, initial concentration 200 nM; read-out: IC50 PIM 2. How it is done: as §1
Sequence of PIM2 (Q9P1W9 whole entry): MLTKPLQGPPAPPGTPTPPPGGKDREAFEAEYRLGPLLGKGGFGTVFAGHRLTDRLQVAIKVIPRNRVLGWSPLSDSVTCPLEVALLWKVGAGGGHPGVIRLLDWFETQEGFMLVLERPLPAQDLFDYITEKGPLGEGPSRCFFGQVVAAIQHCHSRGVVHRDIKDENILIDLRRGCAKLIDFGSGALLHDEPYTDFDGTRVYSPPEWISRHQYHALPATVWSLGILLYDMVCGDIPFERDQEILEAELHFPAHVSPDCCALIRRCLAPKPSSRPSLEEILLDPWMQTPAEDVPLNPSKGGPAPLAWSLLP
A short description of series [3]: Pharmacokinetic test, absolute bioavailability in rats. The conditions noted are these: male SD rats, i.g. 40 mg/kg vs i.v. 20 mg/kg. Format: in vivo. How it is done:
48 male SD rats with a body weight of 200-220 g were randomly divided into 8 groups with 6 mice each group, administered the compound shown in Formula (I), the hydrochloride salt, mesylate and acetate thereof intragastrically (i.g.) and intravenously (i.v.) respectively, and the protocol was shown in Table 7:
Intragastric administration: 2% of HPMC
Intravenous administration: a solution prepared with 20% PEG
The rats were fasted for 12 hours with free access to water prior to experiment; and fed together 2 hours after administration.
Blood sampling time points: 5 min (only administering intravenously), 0.25 h, 0.5 h, 1.0 h, 2.0 h, 4.0 h, 6.0 h, 8.0 h and 24 h after administration;
Sample treatment: 0.3 ml venous blood was obtained from rats' posterior ocular vein plexus at the above-mentioned time points, put into a heparinized tube, centrifuged for 5 minutes at 11000 rpm to separate plasma, then frozen in a refrigerator at −20° C.
The concentration of parent drugs in rat's plasma was detected by utilizing LC/MS/MS.
Wherein, F: absolute bioavailability; AUC: area under the curve; D: Dosage

Series [4] in a line: Test for stability: related substances under high temperature and illumination (HPLC). It is filed as physicochemical. The conditions noted are these: for Related substances Day 10 under high temperature / Related substances Day 10 under illumination condition / Related substances Day 0: acetonitrile-water (1:1) solution; for Related substances Day 10 under high temperature: 60° C., in % (unit assumed); for Related substances Day 10 under high temperature / Related substances Day 10 under illumination condition: 10 days, area normalization; for Related substances Day 10 under illumination condition: 4500 lx±500 lx; for Related substances Day 0: day 0, area normalization. How it is done:
The experiment was carried out according to Guiding Principles of Active Pharmaceutical Ingredient and Pharmaceutical Formulation Stability Test, Appendix XIX C, Second Part, Chinese Pharmacopeia (2010), the increase of related substance of the solution of compounds shown in formula (I) and salts thereof (EXAMPLES 1-17) under high temperature condition (60° C.) and illumination (the light intensity was 4500 lx±500 lx) was detected to evaluate the stability.
Wherein, the method for detecting related substance was shown as following:
HPLC: Waters 2695 UV Detector
Chromatographic Column: Diamonsil C18 (2) 5 μm, 150×4.6 mm
Detection wavelength: 322 nm
Column temperature: 30° C.
Mobile phase B: buffer (900 ml water+10 ml triethylamine+5 ml phosphoric acid, being diluted to 1000 ml with water)
The testing samples were prepared by using acetonitrile-water (1:1) solution with a concentration of 10-100 μg/ml, kept under high temperature (60° C.) and illumination (the light intensity was 4500 lx±500 lx) respectively for 10 days, the mass of related substance was determined on day 0 and day 10 (calculated by using area normalization), the results were shown in Table 6.

Series [5] is described as follows: Test for hygroscopicity (Chinese Pharmacopeia 2010, Appendix XIX J). Format: physicochemical. How it is done: The experiment was carried out according to Guiding Principles of Drug Hygroscopicity Test, Appendix XIX J, Second Part, Chinese Pharmacopeia (2010), the weight increased by hygroscopy of samples (compound shown in Formula (I) and salts thereof prepared in EXAMPLES 1-17) was calculated respectively, the results were shown in Table 4.

Series [6] concerns the target PIM3 (Homo sapiens, UniProt Q86V86). Description: Assay of PIM kinase activity, PIM3. The conditions noted are these: 6 concentrations, initial concentration 30 nM; read-out: IC50 PIM 3. It is filed as biochemical. How it is done: as §1
Series [7] is described as follows: Test of solubility in water (HPLC).
Description: Wherein, the chromatographic condition was shown as follows:
Chromatographic Column: C18
Column temperature: 25° C.
Mobile phase A: 0.1% TFA-water
Mobile phase B: 0.1% TFA-CAN

Sequence of PIM1 (P11309 whole entry): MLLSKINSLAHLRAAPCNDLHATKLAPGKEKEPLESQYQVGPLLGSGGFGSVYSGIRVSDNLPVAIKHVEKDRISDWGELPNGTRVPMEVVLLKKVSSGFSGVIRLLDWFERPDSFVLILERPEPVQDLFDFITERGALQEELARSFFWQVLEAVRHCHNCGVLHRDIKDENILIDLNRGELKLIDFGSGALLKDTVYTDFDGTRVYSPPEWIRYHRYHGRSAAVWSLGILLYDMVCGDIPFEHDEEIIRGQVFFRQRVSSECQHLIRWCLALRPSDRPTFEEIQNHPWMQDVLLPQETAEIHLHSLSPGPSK

Take `Nc1sc(-c2c(F)cccc2F)nc1C(=O)Nc1cncnc1OCC1CCNCC1` [EXAMPLE 1, 5-amino-2-(2,6-difluorophenyl)-N-(4-(piperidine-4-methoxy)pyrimidine-5-) thiazole-4-formamide]: the IC50 in series [1] worked out at 10 nM. Further, the IC50 in series [2] is 8.09 nM. Further, the “Absolute Bioavailability” value in series [3] was found to be 2.2%. For the same molecule, in series [4], the “Related substances Day 10 under high temperature” value is recorded as 5.02, the Related substances Day 10 under illumination condition turned out to be 3.02% and the Related substances Day 0 was 0.45%. The “Weight increased by hygroscopy” value in series [5] was 3.35%. Besides, the IC50 in series [6] came out at 23 nM.
For `Cc1ccc(S(=O)(=O)O)cc1.Nc1sc(-c2c(F)cccc2F)nc1C(=O)Nc1cncnc1OCC1CCNCC1` [EXAMPLE 13], in series [4], the “Related substances Day 10 under high temperature” value amounted to 8.94, the Related substances Day 10 under illumination condition came out at 5.67% and the Related substances Day 0 came to 0.65%. The “Weight increased by hygroscopy” value in series [5] came out at 5.78%.
For Tartrate [EXAMPLE 16] the same measures were 6.89, 3.33%, 0.63% and 7.88%.
Consider `Nc1sc(-c2c(F)cccc2F)nc1C(=O)Nc1cncnc1OCC1CCNCC1.O=C(O)CC(O)(CC(=O)O)C(=O)O` [EXAMPLE 8], for which, in series [4], the “Related substances Day 10 under high temperature” value is on record as 7.34, the Related substances Day 10 under illumination condition turned out to be 5.52% and the Related substances Day 0 came out at 0.52%. Further, the “Weight increased by hygroscopy” value in series [5] was determined as 5.67%.
With `CS(=O)(=O)O.Nc1sc(-c2c(F)cccc2F)nc1C(=O)Nc1cncnc1OCC1CCNCC1` [EXAMPLE 10], the “Absolute Bioavailability” value in series [3] is 7.32%. Further, in series [4], the “Related substances Day 10 under high temperature” value was determined as 35.6, the Related substances Day 10 under illumination condition came to 23% and the Related substances Day 0 amounted to 0.54%. Moreover, the “Weight increased by hygroscopy” value in series [5] is 8.21%.
Consider `Nc1sc(-c2c(F)cccc2F)nc1C(=O)Nc1cncnc1OCC1CCNCC1.O=C(O)/C=C\C(=O)O` [EXAMPLE 4], for which, in series [4], the “Related substances Day 10 under high temperature” value amounted to 4.54, the Related substances Day 10 under illumination condition turned out to be 2.22% and the Related substances Day 0 was determined as 0.46%. Moreover, the “Weight increased by hygroscopy” value in series [5] was 5.45%.
For `Nc1sc(-c2c(F)cccc2F)nc1C(=O)Nc1cncnc1OCC1CCNCC1.O=S(=O)(O)O` [EXAMPLE 7] the same measures were 4.67, 2.45%, 0.52% and 3.56%.
With `Nc1sc(-c2c(F)cccc2F)nc1C(=O)Nc1cncnc1OCC1CCNCC1.O=C(O)c1ccccc1` [EXAMPLE 9], in series [4], the “Related substances Day 10 under high temperature” value was found to be 5.56, the Related substances Day 10 under illumination condition stood at 4.44% and the Related substances Day 0 was 0.56%. In series [5], the “Weight increased by hygroscopy” value turned out to be 7.53%.
Consider `Nc1sc(-c2c(F)cccc2F)nc1C(=O)Nc1cncnc1OCC1CCNCC1.O=C(O)CCC(=O)O` [EXAMPLE 6, Succinate], for which, in series [4], the “Related substances Day 10 under high temperature” value is recorded as 8.82, the Related substances Day 10 under illumination condition came to 4.56% and the Related substances Day 0 was determined as 0.55%. The “Weight increased by hygroscopy” value in series [5] is 7.56%.
In the case of `Br.Nc1sc(-c2c(F)cccc2F)nc1C(=O)Nc1cncnc1OCC1CCNCC1` [EXAMPLE 3], in series [4], the “Related substances Day 10 under high temperature” value was 3.45, the Related substances Day 10 under illumination condition amounted to 1.67% and the Related substances Day 0 was found to be 0.52%. For the same molecule, the “Weight increased by hygroscopy” value in series [5] is on record as 4.32%.
Take `Nc1sc(-c2c(F)cccc2F)nc1C(=O)Nc1cncnc1OCC1CCNCC1` [EXAMPLE 2]: the IC50 is 2.31 nM in series [1], 1.54 nM in series [2] and 4.36 nM in series [6]. Besides, the “Absolute Bioavailability” value in series [3] is reported as 32.2%. Further, the “Related substances Day 10 under high temperature” value in series [4] stood at 0.68. The molecule further displayed a Related substances Day 10 under illumination condition in series [4] of 0.56%. In series [4], the Related substances Day 0 was 0.49%. The “increase of the amount of related substance” value in series [4] (after 10 days, heat, light) was at most 0.19%. Also, in series [7], the solubility in water result is “about 1 mg/mL”. Besides, the “Weight increased by hygroscopy” value in series [5] and in series [5] (listed as hydrochloride salt) was 0.52% each time.
In turn, `Nc1sc(-c2c(F)cccc2F)nc1C(=O)Nc1cncnc1OCC1CCNCC1` (as salt: hydrochloride) [EXAMPLE 2] registered a melting point of 236.1 to 239.4 °C.
Palmitate [EXAMPLE 14]: in series [4], the “Related substances Day 10 under high temperature” value is recorded as 6.89, the Related substances Day 10 under illumination condition turned out to be 3.67% and the Related substances Day 0 was 0.66%. Further, in series [5], the “Weight increased by hygroscopy” value worked out at 6.43%.
As to `CC(=O)O.Nc1sc(-c2c(F)cccc2F)nc1C(=O)Nc1cncnc1OCC1CCNCC1` [EXAMPLE 12], the “Absolute Bioavailability” value in series [3] came to 5.34%. Moreover, in series [4], the “Related substances Day 10 under high temperature” value is given as 3.56, the Related substances Day 10 under illumination condition turned out to be 2.65% and the Related substances Day 0 stood at 0.62%. Further, the “Weight increased by hygroscopy” value in series [5] worked out at 9.21%.
As to Ascorbate [EXAMPLE 17], in series [4], the “Related substances Day 10 under high temperature” value was determined as 18.98, the Related substances Day 10 under illumination condition was 6.66% and the Related substances Day 0 is 0.56%. Further, in series [5], the “Weight increased by hygroscopy” value is 5.67%.
In the case of `Nc1sc(-c2c(F)cccc2F)nc1C(=O)Nc1cncnc1OCC1CCNCC1.O=C(O)/C=C/C(=O)O` [EXAMPLE 15], in series [4], the “Related substances Day 10 under high temperature” value turned out to be 9.12, the Related substances Day 10 under illumination condition was 6.54% and the Related substances Day 0 was 0.56%. In addition, the “Weight increased by hygroscopy” value in series [5] was determined as 4.77%.
For the molecule `CC(O)C(=O)O.Nc1sc(-c2c(F)cccc2F)nc1C(=O)Nc1cncnc1OCC1CCNCC1` [EXAMPLE 11], in series [4], the “Related substances Day 10 under high temperature” value was 10.78, the Related substances Day 10 under illumination condition turned out to be 5.67% and the Related substances Day 0 was 0.54%. Moreover, the “Weight increased by hygroscopy” value in series [5] is on record as 3.67%.
